Laboratory results taken from patent US8093286B2, “Methods for treatment with bucindolol based on genetic targeting” (The Regents of the University of Colorado, a body corporate, priority 2004, dated 2012).
Several values for one entry are separate records, joined by “and”; a condition that tells them apart may be missing. Equal values may be shown once. Where a name gives a salt, the structure may show the parent alone. Marks after values point to notes of the source that are not given here.

Tested on: patients with Class III/IV heart failure
Test: BEST trial, bucindolol vs placebo, clinical outcomes incl. DNA substudy and norepinephrine-change analyses
Format: in vivo
Details: for hazard ratio for hospitalizations, bucindolol vs placebo: adjusted for position 49; for Crude mortality: bucindolol group; for Mortality (M) hazard ratio, NE change quartile 2nd/1st / Mortality (M) hazard ratio, NE change quartile 3rd/1st / Mortality (M) hazard ratio, NE change quartile 4th/1st / Mortality + CHF hospitalization (M + H) hazard ratio, NE change quartile 2nd/1st / Mortality + CHF hospitalization (M + H) hazard ratio, NE change quartile 3rd/1st / Mortality + CHF hospitalization (M + H) hazard ratio, NE change quartile 4th/1st: within bucindolol group; for hazard ratio for survival, bucindolol vs placebo: adjusted for position 49 variants, age, sex, race
Text: Patients who participated in the Beta Blocker Evaluation of Survival Trial (BEST), (Lowes et al., 2002) and who consented for DNA substudies, were genotyped at the coding β1AR polymorphic sites. Enrollment in BEST was from May 31, 1995 to Dec. 31, 1998; the study design has been described in detail elsewhere (BEST Trial Investigators, 2001; and Lowes et al., 2002). Briefly, the study was a randomized, multicenter, placebo-controlled trial of the 3rd generation, nonselective β-blocker-vasodilator bucindolol (Bristow, 2000) in 2708 patients with Class III/IV heart failure (BEST Trial Investigators, 2001). Those receiving the active drug were administered 3 mg bucindolol twice daily for the first week, and up-titrated as tolerated on a weekly basis to 50 mg twice daily (or 100 mg twice daily for patients weighing >75 kg). Of the 2708 patients, 1040 consented for the substudy and had adequate DNA prepared from a blood sample. The study was approved by the BEST DNA Oversight Committee and the University of Cincinnati Institutional Review Board.
DNA was extracted from whole blood using standard techniques (Jones, 1963). Genotyping was performed using methods exactly as previously described in detail (Small et al., 2002). For the β1AR, variations at coding nucleotides 145 and 1165 were delineated, which correspond to amino acids 49 and 389. These alleles are designated as β1-Ser49, β1-Gly49 and β1-Arg389, β1-Gly389. All the DNA samples were successfully genotyped at the β1AR-389 locus and 1030 were successfully genotyped at β1AR-49.
The primary endpoints were all-cause mortality, hospitalizations adjudicated by an endpoints committee (BEST Trial Investigators, 2001) to be due to heart failure, and the combined endpoint of death or heart failure hospitalization. The variants at amino acid position 389 of the β1AR (Arg and Gly) were considered the primary genotypes hypothesized to influence […] efficacy. Continuous clinical variables are reported as mean ±SD, and comparisons were by t-test or Wilcoxon rank-sum tests. Categorical variables are reported as proportions and comparisons were by chi-square or Fisher's exact tests. Cumulative survival curves were constructed by Kaplan-Meier methods (Kaplan et al., 1958); and SAS (r) proprietary software, release 6.12. Cary, N.C.: SAS Institute, 1996). The Cox proportional-hazards regression model was used to examine the effects of treatment stratified by the indicated genotype. Results were adjusted for age, sex, race, and, as indicated, the β1-Gly49 polymorphism. Because of the limited number of comparisons, and an a priori hypothesis that was based on cell, transgenic, and other human studies […] Perez et al., 2003); and Wagoner et al., 2002), the P values <0.05 were considered to as significant, without adjustments for multiple comparisons.
Norepinephrine levels at baseline, or the change at 3 months were used to predict survival and the combined endpoint of mortality+CHF hospitalization. Absolute and log transformed data were initially analyzed. Because of skewness in norepinephrine levels natural log (Ln) transformed data were used in multivariate Cox proportional hazards regression models.
A Maximum Likelihood based method (Kalbfleisch et al., 1980) was used to categorize changes in norepinephrine into 3 groups for prediction of mortality or mortality+CHF hospitalization. This partitioning method finds the optimal split of norepinephrine values that maximize the likelihood of the resulting Cox proportional hazards model. In addition, a flexible cubic spline analysis (Green et al., 1994) was used to determine the shape and significance level of the relationship of norepinephrine changes at 3 months to survival.

[1] = 1st quartile of absolute NE change
[2] = 2nd quartile of absolute NE change
[3] = 3rd quartile of absolute NE change
[4] = 4th quartile of absolute NE change
[5] = BEST α2c DEL carrier (n = 207/1036)
[6] = BEST β1 389Arg/Arg + α2c DEL carriers (n = 73/1036)
[7] = BEST β1 389Arg/Arg + α2c WT/WT (n = 418/1036)
[8] = BEST β1 389 Gly carriers + DEL carriers (n = 134/1036)
[9] = BEST β1 389 Gly carriers + α2c WT/WT (n = 411/1036)
[10] = absolute NE change at 3 months, pg/ml
[11] = β1 389Arg/Arg and α2c WT/WT patients

CC(C)(Cc1c[nH]c2ccccc12)NCC(O)COc1ccccc1C#N (stereo not drawn) [bucindolol, (2-{2-hydroxy-3{{2-(3-indolyl)-1,1-dimethylethyl}amino}propoxy}-benzonitrile hydrochloride)]
bucindolol/placebo hazard ratio, mortality (M) (1st quartile of % NE change): 1.03
bucindolol/placebo hazard ratio, mortality + CHF hospitalization (M + H) (1st quartile of % NE change): 1.14
bucindolol/placebo hazard ratio, mortality (M) [1]: 0.96
bucindolol/placebo hazard ratio, mortality + CHF hospitalization (M + H) [1]: 1.19
bucindolol/placebo hazard ratio, mortality (M) (2nd quartile of % NE change): 0.98
bucindolol/placebo hazard ratio, mortality + CHF hospitalization (M + H) (2nd quartile of % NE change): 1.39
bucindolol/placebo hazard ratio, mortality (M) [2]: 0.98
bucindolol/placebo hazard ratio, mortality + CHF hospitalization (M + H) [2]: 1.30
bucindolol/placebo hazard ratio, mortality (M) (3rd quartile of % NE change): 0.56
bucindolol/placebo hazard ratio, mortality + CHF hospitalization (M + H) (3rd quartile of % NE change): 0.65
bucindolol/placebo hazard ratio, mortality (M) [3]: 0.63
bucindolol/placebo hazard ratio, mortality + CHF hospitalization (M + H) [3]: 0.58
bucindolol/placebo hazard ratio, mortality (M) (4th quartile of % NE change): 0.90
bucindolol/placebo hazard ratio, mortality + CHF hospitalization (M + H) (4th quartile of % NE change): 0.66
bucindolol/placebo hazard ratio, mortality (M) [4]: 0.80
bucindolol/placebo hazard ratio, mortality + CHF hospitalization (M + H) [4]: 0.74
hazard ratio of subsequent mortality with norepinephrine reduction at 3 months (likelihood analysis) (153 bucindolol subjects, NE reduction ≧244.5 pg/ml): 1.69
hazard ratio for hospitalizations, bucindolol vs placebo (Arg389 homozygotes): 0.63
HF Hospitalization hazard ratio, bucindolol vs placebo [5]: 0.76; 67 Ev
Mortality + HF Hospitalization hazard ratio, bucindolol vs placebo [5]: 0.89; 84 Ev
HF Hospitalization hazard ratio, bucindolol vs placebo (BEST α2c WT/WT (n = 829/1036)): 0.74; 267 Ev
Mortality + HF Hospitalization hazard ratio, bucindolol vs placebo (BEST α2c WT/WT (n = 829/1036)): 0.72; 341 Ev
Mortality hazard ratio, bucindolol vs placebo (BEST α2c WT/WT (n = 829/1036)): 0.70; 155 Ev
HF Hospitalization hazard ratio, bucindolol vs placebo (BEST β1 389Arg/Arg (n = 493/1040), hydrochloride): 0.64 and 0.64; 154
HF Hospitalization hazard ratio, bucindolol vs placebo [6]: 0.81; 73 Ev
Mortality + HF Hospitalization hazard ratio, bucindolol vs placebo [6]: 0.85; 34 Ev
Mortality hazard ratio, bucindolol vs placebo [6]: 0.71; 13 Ev
HF Hospitalization hazard ratio, bucindolol vs placebo [7]: 0.59; 126 Ev
Mortality + HF Hospitalization hazard ratio, bucindolol vs placebo [7]: 0.61; 156 Ev
Mortality hazard ratio, bucindolol vs placebo [7]: 0.60; 69 Ev
HF Hospitalization hazard ratio, bucindolol vs placebo [8]: 0.62; 134 Ev
Mortality + HF Hospitalization hazard ratio, bucindolol vs placebo [8]: 0.81; 50 Ev
Mortality hazard ratio, bucindolol vs placebo [8]: 1.35; 24 Ev
HF Hospitalization hazard ratio, bucindolol vs placebo [9]: 0.93; 411 Ev
Mortality + HF Hospitalization hazard ratio, bucindolol vs placebo [9]: 0.86; 185 Ev
Mortality hazard ratio, bucindolol vs placebo [9]: 0.82; 86 Ev
Number of deaths (%) (Bucindolol Incr subgroup, n = 137): 43 (31%)*
Number of deaths (%) (Bucindolol Inter subgroup, n = 551): 114 (21%)
Number of deaths (%) (Bucindolol Redxn subgroup, n = 153): 52 (34%)*
hazard ratio for hospitalizations, bucindolol vs placebo (Gly389 carriers): 0.85
Crude mortality (1st quartile of % NE change (< −30.2)): 25.2%
Crude mortality (1st quartile of absolute NE change (< −144 pg/ml)): 26.1%
Crude mortality (2nd quartile of % NE change (−30.2 to < −2.5)): 26.0%
Crude mortality (2nd quartile of absolute NE change (−144 to < −9 pg/ml)): 25.7%
Crude mortality (3rd quartile of % NE change (−2.5 to 31.1)): 18.8%
Crude mortality (3rd quartile of absolute NE change (−9 to 111 pg/ml)): 17.7* %
Crude mortality (4th quartile of % NE change (> 31.1)): 29.1%
Crude mortality (4th quartile of absolute NE change (> 111 pg/ml)): 28.6%
increased risk of subsequent mortality with marked norepinephrine reduction at 3 months (bucindolol subgroup with NE reduction ≧244.5 pg/ml (Group 1) vs intermediate change group, hydrochloride): 1.7 fold and 1.65 fold
Mortality hazard ratio, Arg/Arg:Gly carrier (bucindolol-treated, BSL NE 64-356 pg/ml (146)): 0.90
Mortality hazard ratio, Arg/Arg:Gly carrier (bucindolol-treated, BSL NE 358-545 pg/ml (144)): 0.74
Mortality hazard ratio, Arg/Arg:Gly carrier (bucindolol-treated, BSL NE 546-2571 pg/ml (149)): 0.68
Mortality hazard ratio, Arg/Arg:Gly carrier (bucindolol-treated, Group 1, change in NE @ 3 mos <−244 (70)): 1.07
Mortality hazard ratio, Arg/Arg:Gly carrier (bucindolol-treated, Group 2, change in NE @ 3 mos −244 to 145 (248)): 0.82
Mortality hazard ratio, Arg/Arg:Gly carrier (bucindolol-treated, Group 3, change in NE @ 3 mos >145 (54)): 0.36
relatively better mortality reduction of Arg homozygotes vs Gly carriers (bucindolol-treated, increasing norepinephrine group (>145 pg/ml)): 64%
Mortality (M) hazard ratio, NE change quartile 2nd/1st (% NE change at 3 months): 1.14
Mortality (M) hazard ratio, NE change quartile 3rd/1st (% NE change at 3 months): 0.77
Mortality (M) hazard ratio, NE change quartile 4th/1st (% NE change at 3 months): 1.19
Mortality + CHF hospitalization (M + H) hazard ratio, NE change quartile 2nd/1st (% NE change at 3 months): 1.18
Mortality + CHF hospitalization (M + H) hazard ratio, NE change quartile 3rd/1st (% NE change at 3 months): 0.91
Mortality + CHF hospitalization (M + H) hazard ratio, NE change quartile 4th/1st (% NE change at 3 months): 1.18
Mortality (M) hazard ratio, NE change quartile 2nd/1st [10]: 0.99
Mortality (M) hazard ratio, NE change quartile 3rd/1st [10]: 0.66
Mortality (M) hazard ratio, NE change quartile 4th/1st [10]: 1.15
Mortality + CHF hospitalization (M + H) hazard ratio, NE change quartile 2nd/1st [10]: 1.00
Mortality + CHF hospitalization (M + H) hazard ratio, NE change quartile 3rd/1st [10]: 0.83
Mortality + CHF hospitalization (M + H) hazard ratio, NE change quartile 4th/1st [10]: 1.10
increase in CV mortality (α2c DEL 322-325 and β1 389Gly carriers): 36%
increase in cardiovascular mortality (α2c DEL 322-325 carriers): 3%
increase in all-cause mortality (α2c DEL 322-325 carriers who are β1 389Gly carriers, hydrochloride): 36% and 35%
reduction in cardiovascular mortality (α2c WT/WT patients): 41%
reduction in mortality plus HF hospitalization (α2c wild type patients): 28%
reduction in all-cause mortality (α2cAR wild type (WT/WT) patients, hydrochloride): 29% and 30%
reduction in mortality (α2cAR wild type patients who are β1 389Gly carriers (nonsignificant)): 22%
mortality reduction (α2cAR-Del322-325 carriers with β1AR-389Arg/Arg): 18%
increase in all-cause mortality (α2cAR-Del322-325 carriers, hydrochloride): 10% and 9%
reduction in all-cause mortality [11]: 40%
reduction in cardiovascular mortality [11]: 47%
reduction in mortality + heart failure hospitalization [11]: 39%
reduction in cardiovascular mortality (β1 389Arg/Arg patients): 46%
reduction in all-cause mortality (β1 389Gly carriers (nonsignificant)): 10%
reduction in cardiovascular mortality (β1 389Gly carriers (p=NS)): 22%
reduction in HF hospitalization (β1-389 Arg/Arg + α2c wild type patients): 41%
hazard ratio for survival, bucindolol vs placebo (β1-Arg389 homozygotes): 0.62
hazard ratio for survival, bucindolol vs placebo (β1-Gly389 carriers): 0.89
reduction in all-cause mortality (improvement in survival) (β1AR-389Arg/Arg patients): 38%
